The term AC50 denotes the concentration at which the activity in the assay is half-maximal.

For test [1], the target named is T1, Progesterone receptor (Homo sapiens, UniProt P06401).
T1 sequence (P06401 whole entry): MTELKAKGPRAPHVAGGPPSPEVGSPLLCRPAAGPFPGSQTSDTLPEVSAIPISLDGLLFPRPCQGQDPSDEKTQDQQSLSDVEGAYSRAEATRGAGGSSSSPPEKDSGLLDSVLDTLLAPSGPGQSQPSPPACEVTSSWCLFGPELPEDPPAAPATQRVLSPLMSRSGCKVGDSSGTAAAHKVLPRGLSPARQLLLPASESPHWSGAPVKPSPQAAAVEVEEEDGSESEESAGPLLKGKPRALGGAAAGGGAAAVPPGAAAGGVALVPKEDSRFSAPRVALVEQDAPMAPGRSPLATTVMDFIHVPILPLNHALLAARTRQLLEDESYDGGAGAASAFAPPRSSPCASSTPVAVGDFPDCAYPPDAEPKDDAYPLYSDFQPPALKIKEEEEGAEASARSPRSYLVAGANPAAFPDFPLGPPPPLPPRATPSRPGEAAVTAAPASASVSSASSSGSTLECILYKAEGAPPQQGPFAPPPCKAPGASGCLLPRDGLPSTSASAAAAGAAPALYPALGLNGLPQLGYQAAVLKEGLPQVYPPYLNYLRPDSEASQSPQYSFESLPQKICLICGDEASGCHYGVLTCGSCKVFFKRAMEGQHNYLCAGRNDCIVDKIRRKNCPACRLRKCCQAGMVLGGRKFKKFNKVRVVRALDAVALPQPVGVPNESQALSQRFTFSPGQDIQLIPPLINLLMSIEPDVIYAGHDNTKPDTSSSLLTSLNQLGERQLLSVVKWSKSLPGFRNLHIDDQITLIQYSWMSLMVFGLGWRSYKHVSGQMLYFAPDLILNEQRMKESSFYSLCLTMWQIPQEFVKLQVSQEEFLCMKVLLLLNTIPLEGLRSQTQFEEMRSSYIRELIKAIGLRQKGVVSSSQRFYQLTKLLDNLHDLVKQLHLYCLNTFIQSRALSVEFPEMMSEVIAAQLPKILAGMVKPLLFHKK
It counts as functional.

The target of test [2] is Voltage-dependent L-type calcium channel subunit alpha-1C (Rattus norvegicus, UniProt P22002). The class given is functional.
Chain of Voltage-dependent L-type calcium channel subunit alpha-1C (P22002 whole entry): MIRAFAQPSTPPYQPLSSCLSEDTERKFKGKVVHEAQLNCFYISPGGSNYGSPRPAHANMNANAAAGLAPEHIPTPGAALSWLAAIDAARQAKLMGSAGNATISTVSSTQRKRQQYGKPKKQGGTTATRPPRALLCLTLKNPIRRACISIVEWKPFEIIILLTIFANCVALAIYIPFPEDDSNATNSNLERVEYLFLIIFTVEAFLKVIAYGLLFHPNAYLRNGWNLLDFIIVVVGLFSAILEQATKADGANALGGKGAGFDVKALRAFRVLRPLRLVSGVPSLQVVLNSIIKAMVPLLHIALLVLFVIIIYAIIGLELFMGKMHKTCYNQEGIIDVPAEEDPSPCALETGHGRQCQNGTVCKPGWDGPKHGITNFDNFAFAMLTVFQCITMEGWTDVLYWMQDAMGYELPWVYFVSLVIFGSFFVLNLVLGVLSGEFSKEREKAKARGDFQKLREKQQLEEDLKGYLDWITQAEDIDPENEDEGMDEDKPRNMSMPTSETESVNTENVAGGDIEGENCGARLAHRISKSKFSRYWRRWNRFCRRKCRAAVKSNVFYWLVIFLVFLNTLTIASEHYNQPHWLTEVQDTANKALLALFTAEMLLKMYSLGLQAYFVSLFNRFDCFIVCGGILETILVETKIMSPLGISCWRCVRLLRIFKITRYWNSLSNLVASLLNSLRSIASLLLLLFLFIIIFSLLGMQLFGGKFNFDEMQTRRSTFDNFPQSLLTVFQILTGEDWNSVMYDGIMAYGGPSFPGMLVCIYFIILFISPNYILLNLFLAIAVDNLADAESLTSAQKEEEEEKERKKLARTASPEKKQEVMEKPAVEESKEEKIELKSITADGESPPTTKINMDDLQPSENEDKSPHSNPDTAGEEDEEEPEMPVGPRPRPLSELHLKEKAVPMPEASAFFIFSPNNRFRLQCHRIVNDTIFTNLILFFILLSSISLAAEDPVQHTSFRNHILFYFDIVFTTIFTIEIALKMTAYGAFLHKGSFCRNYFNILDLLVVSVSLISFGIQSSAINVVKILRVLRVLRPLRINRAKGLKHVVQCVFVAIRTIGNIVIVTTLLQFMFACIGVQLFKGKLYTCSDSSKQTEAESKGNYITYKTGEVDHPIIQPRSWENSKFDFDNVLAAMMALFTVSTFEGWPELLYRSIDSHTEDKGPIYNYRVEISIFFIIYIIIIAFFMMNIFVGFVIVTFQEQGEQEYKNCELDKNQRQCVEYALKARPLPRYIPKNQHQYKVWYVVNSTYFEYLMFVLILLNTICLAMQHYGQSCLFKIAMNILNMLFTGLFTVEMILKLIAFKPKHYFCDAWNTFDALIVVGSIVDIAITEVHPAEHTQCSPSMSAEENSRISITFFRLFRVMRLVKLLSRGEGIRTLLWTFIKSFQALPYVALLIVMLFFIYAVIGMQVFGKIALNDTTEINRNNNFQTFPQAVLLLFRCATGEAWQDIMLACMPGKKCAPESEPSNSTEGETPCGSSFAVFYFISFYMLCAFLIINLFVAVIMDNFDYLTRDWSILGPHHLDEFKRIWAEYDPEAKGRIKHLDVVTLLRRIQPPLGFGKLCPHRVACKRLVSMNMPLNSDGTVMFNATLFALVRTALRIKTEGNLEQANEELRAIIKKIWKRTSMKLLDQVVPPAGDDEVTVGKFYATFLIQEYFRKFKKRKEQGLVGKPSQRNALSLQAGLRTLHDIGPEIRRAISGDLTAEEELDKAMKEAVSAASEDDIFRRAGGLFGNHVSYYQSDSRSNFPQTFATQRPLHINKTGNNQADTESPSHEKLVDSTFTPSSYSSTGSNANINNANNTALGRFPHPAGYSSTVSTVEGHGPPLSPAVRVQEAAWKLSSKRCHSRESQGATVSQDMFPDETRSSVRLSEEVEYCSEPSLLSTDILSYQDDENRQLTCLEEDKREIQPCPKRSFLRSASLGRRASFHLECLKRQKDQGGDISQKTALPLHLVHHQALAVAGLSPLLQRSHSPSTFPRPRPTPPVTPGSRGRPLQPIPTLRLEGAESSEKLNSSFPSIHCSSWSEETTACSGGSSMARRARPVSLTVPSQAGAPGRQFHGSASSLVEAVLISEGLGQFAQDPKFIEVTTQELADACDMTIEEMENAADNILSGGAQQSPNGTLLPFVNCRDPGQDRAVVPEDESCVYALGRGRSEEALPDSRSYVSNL
Test [3] concerns the target Muscarinic acetylcholine receptor M3 (Homo sapiens, UniProt P20309).
The target in test [4] is T2, Neuropeptide Y receptor type 1 (Homo sapiens, UniProt P25929).
T2 sequence (P25929 whole entry): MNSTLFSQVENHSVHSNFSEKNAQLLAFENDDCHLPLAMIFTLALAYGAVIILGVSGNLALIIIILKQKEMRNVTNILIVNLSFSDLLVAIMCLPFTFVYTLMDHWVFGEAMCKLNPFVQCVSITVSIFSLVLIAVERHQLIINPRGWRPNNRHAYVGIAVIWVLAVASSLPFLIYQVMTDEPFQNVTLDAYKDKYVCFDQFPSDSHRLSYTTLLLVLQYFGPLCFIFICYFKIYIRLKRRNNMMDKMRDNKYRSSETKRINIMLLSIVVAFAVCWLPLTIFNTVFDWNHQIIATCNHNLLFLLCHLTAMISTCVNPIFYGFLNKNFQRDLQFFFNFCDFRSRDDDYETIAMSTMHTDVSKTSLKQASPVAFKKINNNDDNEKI

For test [5], the target named is T3, Gastrin/cholecystokinin type B receptor (Homo sapiens, UniProt P32239).
T3 sequence (P32239 whole entry): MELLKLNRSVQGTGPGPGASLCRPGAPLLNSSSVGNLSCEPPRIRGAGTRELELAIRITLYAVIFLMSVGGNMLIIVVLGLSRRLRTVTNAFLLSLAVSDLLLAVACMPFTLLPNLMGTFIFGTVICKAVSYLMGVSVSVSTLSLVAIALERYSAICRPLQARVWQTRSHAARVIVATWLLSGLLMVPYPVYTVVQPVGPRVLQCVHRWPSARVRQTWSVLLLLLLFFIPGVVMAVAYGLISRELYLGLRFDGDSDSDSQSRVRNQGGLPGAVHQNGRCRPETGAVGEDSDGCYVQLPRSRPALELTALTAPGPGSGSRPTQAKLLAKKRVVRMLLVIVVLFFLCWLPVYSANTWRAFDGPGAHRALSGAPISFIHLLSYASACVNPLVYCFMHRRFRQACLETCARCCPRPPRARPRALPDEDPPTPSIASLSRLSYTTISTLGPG

Test [6] has as its target 3',5'-cyclic-AMP phosphodiesterase 4D (Homo sapiens, UniProt Q08499). It counts as functional.
The target of test [7] is T4, Alpha-2A adrenergic receptor (Homo sapiens, UniProt P08913).
T4 sequence (P08913 whole entry): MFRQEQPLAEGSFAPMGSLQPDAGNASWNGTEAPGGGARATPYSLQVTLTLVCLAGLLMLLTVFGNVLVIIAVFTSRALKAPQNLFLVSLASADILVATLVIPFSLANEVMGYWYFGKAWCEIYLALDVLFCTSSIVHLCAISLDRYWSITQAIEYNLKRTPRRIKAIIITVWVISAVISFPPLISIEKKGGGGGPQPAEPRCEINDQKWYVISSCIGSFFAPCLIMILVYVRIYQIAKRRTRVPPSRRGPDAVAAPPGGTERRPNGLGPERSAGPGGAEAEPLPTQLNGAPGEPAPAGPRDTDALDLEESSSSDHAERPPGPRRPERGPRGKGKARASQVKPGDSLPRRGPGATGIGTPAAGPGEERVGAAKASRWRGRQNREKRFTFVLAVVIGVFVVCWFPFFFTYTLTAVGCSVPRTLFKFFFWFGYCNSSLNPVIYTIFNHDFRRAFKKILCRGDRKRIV
It counts as functional, cell-based.
Also: assay procedure not described here.

Chain of Muscarinic acetylcholine receptor M3 (P20309 whole entry): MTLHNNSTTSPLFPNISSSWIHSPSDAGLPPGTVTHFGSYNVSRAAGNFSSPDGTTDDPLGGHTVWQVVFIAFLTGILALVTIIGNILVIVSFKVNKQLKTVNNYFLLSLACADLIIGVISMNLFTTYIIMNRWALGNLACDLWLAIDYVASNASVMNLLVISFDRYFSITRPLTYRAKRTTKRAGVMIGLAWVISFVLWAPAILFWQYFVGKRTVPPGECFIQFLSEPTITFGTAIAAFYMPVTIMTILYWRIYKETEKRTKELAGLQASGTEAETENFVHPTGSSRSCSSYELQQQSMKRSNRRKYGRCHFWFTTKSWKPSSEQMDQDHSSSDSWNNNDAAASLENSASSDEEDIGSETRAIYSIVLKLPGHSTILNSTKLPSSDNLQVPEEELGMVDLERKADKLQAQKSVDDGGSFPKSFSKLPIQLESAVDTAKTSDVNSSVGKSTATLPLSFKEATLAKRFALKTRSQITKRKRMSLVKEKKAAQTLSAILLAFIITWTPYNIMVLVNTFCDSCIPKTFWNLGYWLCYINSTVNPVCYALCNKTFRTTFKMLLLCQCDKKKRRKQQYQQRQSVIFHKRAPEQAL
Chain of 3',5'-cyclic-AMP phosphodiesterase 4D (Q08499 whole entry): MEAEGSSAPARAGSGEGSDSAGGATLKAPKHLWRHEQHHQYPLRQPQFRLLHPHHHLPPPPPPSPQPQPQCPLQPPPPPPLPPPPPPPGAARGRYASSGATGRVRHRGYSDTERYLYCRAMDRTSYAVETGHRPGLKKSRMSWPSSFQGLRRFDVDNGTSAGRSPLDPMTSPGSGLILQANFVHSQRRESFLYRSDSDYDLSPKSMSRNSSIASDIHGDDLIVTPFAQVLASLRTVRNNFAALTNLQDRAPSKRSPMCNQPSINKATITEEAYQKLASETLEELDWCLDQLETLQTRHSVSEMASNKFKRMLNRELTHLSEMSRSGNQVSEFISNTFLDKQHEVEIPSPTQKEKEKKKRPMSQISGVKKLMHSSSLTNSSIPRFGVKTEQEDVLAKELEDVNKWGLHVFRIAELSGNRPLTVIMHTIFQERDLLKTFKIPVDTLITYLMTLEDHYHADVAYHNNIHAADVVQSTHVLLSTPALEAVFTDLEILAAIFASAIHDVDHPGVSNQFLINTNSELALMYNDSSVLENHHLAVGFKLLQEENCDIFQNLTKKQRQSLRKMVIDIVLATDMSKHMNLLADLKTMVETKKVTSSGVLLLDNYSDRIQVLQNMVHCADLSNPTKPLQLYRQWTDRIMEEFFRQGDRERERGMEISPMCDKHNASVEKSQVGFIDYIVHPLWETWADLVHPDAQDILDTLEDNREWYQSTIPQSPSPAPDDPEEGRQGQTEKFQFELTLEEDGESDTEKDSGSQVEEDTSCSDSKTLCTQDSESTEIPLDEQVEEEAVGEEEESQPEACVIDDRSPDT

Take `C=CCN1CCCC1CNC(=O)c1cc(S(N)(=O)=O)cc(OC)c1OC` (centres undefined) [VERALIPRIDE]: the AC50 in test [1], in test [2], in test [3], in test [4], in test [5] and in test [6] was over 30 µM throughout. The molecule further returned an AC50 in test [7] of 26 µM.

Consider `COc1ccccc1N1CCN(CCCNc2cc(=O)n(C)c(=O)n2C)CC1`, for which the AC50 in test [1] was over 30 µM; in test [2] it was over 30 µM; in test [3], over 30 µM; in test [4], over 30 µM; in test [5], over 30 µM; in test [6] it was over 10 µM. In test [7], this molecule displayed an AC50 of 11 µM.

For `OC(CNCC(O)C1CCc2cc(F)ccc2O1)C1CCc2cc(F)ccc2O1` (centres undefined) [NEBIVOLOL], the AC50 in test [1] is over 30 µM; in test [2], 24 µM; in test [3] it was over 30 µM; in test [4], 24 µM; in test [5], over 30 µM; in test [6], over 30 µM. This molecule also came in with an AC50 in test [7] of 8.1 µM.

As for `Nc1nc(/C(=C/CC(=O)O)C(=O)N[C@@H]2C(=O)N3C(C(=O)O)=CCS[C@H]23)cs1` [CEFTIBUTEN], the AC50 in test [1], in test [2], in test [3], in test [4], in test [5] and in test [6] was over 30 µM in each case. For the same molecule, the AC50 in test [7] is over 30 µM.

Consider `COc1cc2c(N)nc(N3CCN(C(=O)OCC(C)(C)O)CC3)nc2c(OC)c1OC` [TRIMAZOSIN], for which the concentration at half-maximal activity (AC50) in test [1], in test [2], in test [3], in test [4], in test [5] and in test [6] was over 30 µM throughout. The AC50 in test [7] was over 30 µM.

`CCOC(=O)[N-]c1cn(N2CCOCC2)n[o+]1` [MOLSIDOMINE]: the AC50 in test [1], in test [2], in test [3], in test [4], in test [5] and in test [6] was over 30 µM throughout. The molecule also came in with an AC50 in test [7] of over 30 µM.

For the molecule `CCCCCCOc1ccccc1C(N)=O` [EXALAMIDE], the AC50 in test [1], in test [2], in test [3], in test [4], in test [5] and in test [6] was over 30 µM in each case. In test [7], this molecule showed a half-maximal activity concentration (AC50) of over 30 µM.

The values are drawn from ChEMBL document CHEMBL5291721, “A preclinical secondary pharmacology resource illuminates target-adverse drug reaction associations of marketed drugs” (Nat Commun, 2023).
